# Reference: patent publication US8716242B2, “β-hairpin peptidomimetics” (priority 2009, dated 2014)
# Like-named read-outs stand apart in the source and are kept apart here. Numbered stars: 1 amine (or outer) side, 2 acyl side, 3 side chain; on linkers, the order of the positions; unused ones are H or OH. Bridge positions count the residues as written; N and C are the ends. Square brackets hold non-standard residues; d marks the D form. Side chains are listed from the residue outwards. Peptide text beside a SMILES is read from it. * marks the point of attachment. Cholyl = C[C@H](CCC(=O)*)[C@H]1CC[C@H]2[C@@H]3[C@H](O)C[C@@H]4C[C@H](O)CC[C@]4(C)[C@H]3C[C@H](O)[C@]12C; Benzoyl(4-octyloxy) = CCCCCCCCOc1ccc(C(=O)*)cc1; X2 = CCCCCCCCCC[C@@H](N[*:1])C(=O)[*:2]; γGlu = O=C(O)[C@H](CCC(=O)[*:2])N[*:1]; Lauroyl = CCCCCCCCCCCC(=O)*; Decanoyl = CCCCCCCCCC(=O)*; Dab = NCC[C@H](N)C(=O)O
# Legend:
# [1] = Plasma stability in mouse plasma; type: in vitro ADME; conditions: mouse plasma, 37° C.; for remaining at 24 h, 10 μM: 1440 min, read-out: mouse pl. cpd left at 1440 min; for mouse pl. T1/2: up to 1440 min
# Experimental: (§1) Percent hemolysis was calculated as follows: (OD540peptide/OD540H2O)×100%. 2.6. Plasma Stability
# (§2) The stability of the peptides in human and mouse plasma was determined by applying the following method: 346.5 μL/deep well of freshly thawed human plasma (Basler Blutspendedienst) and mouse plasma (Harlan Sera-Lab, UK), respectively, were spiked with 3.5 μL/well of compound dissolved in DMSO/H2O ([…] [v/v], 1 mM, triplicate) and incubated at 37° C. At t=0, 15, 30, 60, 120, 240 and 1440 min aliquots of 50 μL were transferred to filtration plate wells containing 150 μL/well of 2% formic acid in acetonitrile. Following shaking for 2 min the occurred suspensions were filtrated by vacuum and 50 μL of each filtrate was mixed with 100 μL of 1% formic acid in H2O. After transfer to a propylene microtiter plate, the filtrates were analyzed by LC/MS as follows: Column: Waters, XBridge C18, mobile phases: (A) water+0.1% formic acid and (B) acetonitrile/water, 95/5 (v/v)+0.1% formic acid, gradient: 5%-100% (B) in 2 minutes, electrospray ionization, MRM detection (triple quadrupole). The peak areas were determined and triplicate values are averaged. The stability is expressed in percent of the initial value at t=0. (tx/t0×100). By using the TREND function of EXCEL (Microsoft Office 2003) T1/2 were determined.
# human CXCR4 = biological target: T1, human CXCR4 (Homo sapiens, UniProt P61073); experiment: Ca2+-assay: CXCR4-antagonizing activity (SDF-1 induced calcium mobilization); type: cell-based
# T1 construct: expressed in transfected cells; host or cells: mouse pre-B cell line 300-19
# Excerpt: 2.3. Ca^2+-Assay: CXCR4-Antagonizing Activity of the Peptides
# Increases in intracellular calcium were monitored using a Flexstation 384 (Molecular Devices, Sunnyvale, Calif.) to assay the peptides for CXCR4 antagonism in a mouse pre-B cell line 300-19 stably transfected with human CXCR4 (E. Oberlin, A. Amara, F. Bachelerie, C. Bessia, J.-L. Virelizier, F. Arenzana-Seisdedos, O, Schwartz, J.-M. Heard, I. Clark-Lewis, D. F. Legler, M. Loetscher, M. Baggiolini, B. Moser, Nature 1996, 382, 833-835; M. Loetscher, T. Geiser, T. O'Reilly, R. Zwalen, M. Baggiolini, B. Moser, J. Biol. Chem. 1994, 269, 232-237; M. D'Apuuo, A. Rolink, M. Loetscher, J. A. Hoxie, I. Clark-Lewis, F. Melchors, M. Baggiolini, B. Moser, Eur. J. Immunol. 1997, 27, 1788-1793). The cells were batch loaded with the Calcium 4 Assay kit (Molecular Devices) in assay buffer (Hanks Balanced salt solution [HBSS], 20 mM HEPES, pH 7.4, 0.1% BSA) for 1 h at room temperature and labeled cells were dispensed into black well assays plates (Costar No. 3603). Calcium mobilization induced by stromal-derived factor-1 (SDF-1) was measured in the Flexstation 384 (excitation: 485 nm; emission: 525 nm) for 90 seconds. Antagonist activity of peptides was determined by spiking the cells with compounds prior to SDF-1 addition. Dose response curves (compound concentration versus % maximum response for SDF-1) were determined for each antagonist and IC50 values were calculated by fitting the data to a four parameter logistic equation using SoftmaxPro 4.8 (Molecular Devices).
# [2] = Cytotoxicity, MTT reduction assay, COS-7 cells; type: cell-based; conditions: African green monkey, COS-7 cells (CRL-1651), 12.5-50 μM
# Experimental: (§3) Mouse pre-B cells were cultured in RPMI1640 plus 5% FBS, antibiotic/antimycotic, non essential amino acid, 50 μM β-mercaptoethanol and 1 mM natrium pyruvate. HELA cells were maintained in RPMI1640 plus 10% FBS, pen/strept and 2 mM L-glutamine. Cos-7 cells were grown in DMEM medium with […] glucose supplemented with 10% FCS, pen/strept and 2 mM L-glutamine. All cell lines were grown at 37° C. at 5% CO2. Cell media, media supplements, PBS-buffer, HEPES, antibiotic/antimycotic, pen/strept, non essential amino acid, L-glutamine, β-mercaptoethanol and sera were purchased from Gibco (Pailsey, UK). All fine chemicals were supplied by Merck (Darmstadt, Germany).
# (§4) The cytotoxicity of the peptides to HELA cells (Acc57) and COS-7 cells (CRL-1651) was determined using the MTT reduction assay (T. Mossman, J. Immunol. Meth. 1983, 65, 55-63; M. V. Berridge, A. S. Tan, Arch. Biochem. Biophys. 1993, 303, 474-482). Briefly, the method was as follows: 4000 HELA cells/well and 3400 COS-7 cells/well were seeded and grown in 96-well microtiter plates for 24 h at 37° C. at 5% CO2. Thereafter, time zero (Tz) was determined by MTT reduction (see below). The supernatant of the remaining wells was discarded, and fresh medium and compounds in serial dilutions (12.5, 25 and 50 μM, triplicates) were pipetted into the wells. After incubation of the cells for 48 h at 37° C. at 5% CO2 the supernatant was discarded again and 100 μL MTT reagent (0.5 mg/mL in RPMI1640 and DMEM, respectively)/well was added. Following incubation at 37° C. for 2-4 h the media were aspirated and the cells were spiked (100 μL isopropanol/well). The absorbance of the solubilized formazan was measured at 595 nm (OD595peptide). For each concentration averages were calculated from triplicates. The percentage of growth was calculated as follows: (OD595peptide-OD595Tz-OD595Empty well)/(OD595Tz-OD595Empty well)×100%. The GI50 (Growth Inhibition) concentrations were calculated for each peptide by using a trend line function for the concentrations (50, 25, 12.5 and 0 μM), the corresponding percentages and the value 50, (=TREND (C50: C0, %50:%0,50).
# [3] = Cytotoxicity, MTT reduction assay, HELA cells; type: cell-based; conditions: human, HELA cells (Acc57), 12.5-50 μM
# Experimental: as §3, §4
# [4] = Plasma stability in human plasma; type: in vitro ADME; conditions: human plasma, 37° C.; for remaining at 24 h, 10 μM: 1440 min, read-out: human pl. cpd left at 1440 min; for human pl. T1/2: up to 1440 min
# Experimental: as §1, §2
# [5] = tested on: human red blood cells (hRBC); experiment: Hemolysis of human red blood cells; type: cell-based; conditions: 20% hRBC, 1 h, 37° C.
# Experimental: The peptides were tested for their hemolytic activity against human red blood cells (hRBC). Fresh hRBC were washed three times with phosphate buffered saline (PBS) and centrifuged for 10 min at 2000×g. Compounds (100 μM) were incubated with 20% hRBC (v/v) for 1 h at 37° C. and shaking at 300 rpm. The final erythrocyte concentration was approximately 0.9×10^9 cells/mL. A value of 0% and 100% cell lyses, respectively, was determined by incubation of hRBC in the presence of PBS containing 0.001% acetic acid and 2.5% Triton X-100 in H2O, respectively. The samples were centrifuged, the supernatants were 8-fold diluted in PBS buffer and the optical densities (OD) were measured at 540 nm. The 100% lyses value (OD540H2O) gave an OD540 of approximately 0.5-1.0.
# as §1
# [6] = mouse pre-B cell line 300-19 transfected with human CXCR4, SDF-1 induced Ca2+ mobilization, read-out: IC50% [nM] ± SD, CXCR4 receptor
# T1 sequence (P61073 whole entry): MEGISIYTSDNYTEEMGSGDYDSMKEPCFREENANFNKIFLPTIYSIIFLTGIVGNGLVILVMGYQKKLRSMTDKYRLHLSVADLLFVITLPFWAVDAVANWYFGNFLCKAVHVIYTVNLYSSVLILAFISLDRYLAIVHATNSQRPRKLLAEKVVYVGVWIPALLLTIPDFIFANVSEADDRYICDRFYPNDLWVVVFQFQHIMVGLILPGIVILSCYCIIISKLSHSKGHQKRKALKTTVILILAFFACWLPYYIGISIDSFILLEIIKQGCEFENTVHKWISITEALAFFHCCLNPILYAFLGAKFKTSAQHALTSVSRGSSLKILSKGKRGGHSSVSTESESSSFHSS
structure (smiles),measurement,setting,value
C[C@H](CCC(=O)NCC(=O)NCCCC[C@@H]1NC(=O)[C@H](CCC(N)=O)NC(=O)[C@H](Cc2ccc(O)cc2)NC(=O)[C@@H]2CSSC[C@H](NC(=O)[C@H]([C@@H](C)O)NC(=O)[C@H](Cc3c[nH]cn3)NC(=O)[C@H](Cc3ccc(O)cc3)NC(=O)[C@@H]3CCCN3C(=O)[C@H]3CCCN3C1=O)C(=O)N[C@@H](CCCNC(=N)N)C(=O)NCC(=O)N1CCC[C@@H]1C(=O)N[C@@H](CCN)C(=O)N[C@@H](CCCNC(=N)N)C(=O)N[C@@H](Cc1ccc(O)cc1)C(=O)N2)[C@H]1CC[C@H]2[C@@H]3[C@H](O)C[C@@H]4C[C@H](O)CC[C@]4(C)[C@H]3C[C@H](O)[C@]12C [Ex. 34] (cyclo(YHTCRG[dP][Dab]RYCYQK([Gly-Cholyl])[dP]P); disulfide 4-11),"remaining at 24 h, 10 μM",[1],87%
same,mouse pl. T1/2,[1],24 h
same,IC50,human CXCR4,7.2 ± 0.3 nM
same,GI50 at 48 h,[2],> 50 µM
same,GI50 at 48 h,[3],> 45 µM
same,"remaining at 24 h, 10 μM",[4],100%
same,human pl. T1/2,[4],24 h
same,Hemolysis at 100 μM,[5],0.6%
CCCCCCCCCC[C@H]1NC(=O)[C@H](Cc2ccc(O)cc2)NC(=O)[C@@H]2CSSC[C@H](NC(=O)[C@H](C)NC(=O)[C@H](Cc3c[nH]cn3)NC(=O)[C@H](Cc3ccc(O)cc3)NC(=O)[C@@H]3CCCN3C(=O)[C@H]3CCCN3C(=O)[C@H](CCCCN)NC1=O)C(=O)N[C@@H](CCCNC(=N)N)C(=O)N[C@@H](C)C(=O)N1CCC[C@@H]1C(=O)N[C@@H](CCN)C(=O)N[C@@H](CCCNC(=N)N)C(=O)N[C@@H](Cc1ccc(O)cc1)C(=O)N2 [Ex. 9] (cyclo(YHACRA[dP][Dab]RYCY[X2]K[dP]P); disulfide 4-11),"remaining at 24 h, 10 μM",[1],76%
same,mouse pl. T1/2,[1],24 h
same,IC50,human CXCR4; [6],91.3 ± 19 nM
same,GI50 at 48 h,[2],> 50 µM
same,GI50 at 48 h,[3],> 13 µM
same,"remaining at 24 h, 10 μM",[4],100%
same,human pl. T1/2,[4],24 h
same,Hemolysis at 100 μM,[5],2.2%
CCCCCCCCCC(=O)NCC[C@@H]1NC(=O)[C@H](Cc2ccc(O)cc2)NC(=O)[C@@H]2CSSC[C@H](NC(=O)[C@H](C)NC(=O)[C@H](Cc3c[nH]cn3)NC(=O)[C@H](Cc3ccc(O)cc3)NC(=O)[C@@H]3CCCN3C(=O)[C@H]3CCCN3C(=O)[C@H](CCCCN)NC1=O)C(=O)N[C@@H](CCCNC(=N)N)C(=O)N[C@@H](C)C(=O)N1CCC[C@@H]1C(=O)N[C@@H](CCN)C(=O)N[C@@H](CCCNC(=N)N)C(=O)N[C@@H](Cc1ccc(O)cc1)C(=O)N2 [Ex. 10] (cyclo(YHACRA[dP][Dab]RYCY[Dab](Decanoyl)K[dP]P); disulfide 4-11),"remaining at 24 h, 10 μM",[1],63%
same,mouse pl. T1/2,[1],24 h
same,IC50,human CXCR4; [6],8.1 ± 0.9 nM
same,GI50 at 48 h,[2],> 50 µM
same,GI50 at 48 h,[3],> 50 µM
same,"remaining at 24 h, 10 μM",[4],85%
same,human pl. T1/2,[4],24 h
same,Hemolysis at 100 μM,[5],1.0%
CCCCCCCCCCCC(=O)N[C@@H](CCC(=O)NCCCC[C@@H]1NC(=O)[C@H](Cc2ccc(O)cc2)NC(=O)[C@@H]2CSSC[C@H](NC(=O)[C@H](C)NC(=O)[C@H](Cc3c[nH]cn3)NC(=O)[C@H](Cc3ccc(O)cc3)NC(=O)[C@@H]3CCCN3C(=O)[C@H]3CCCN3C(=O)[C@H](CCCCN)NC1=O)C(=O)N[C@@H](CCCNC(=N)N)C(=O)NCC(=O)N1CCC[C@@H]1C(=O)N[C@@H](CCN)C(=O)N[C@@H](CCCNC(=N)N)C(=O)N[C@@H](Cc1ccc(O)cc1)C(=O)N2)C(=O)O [compound 27] (cyclo(YHACRG[dP][Dab]RYCYK([γGlu-Lauroyl])K[dP]P); disulfide 4-11),"remaining at 24 h, 10 μM",[1],22%
same,mouse pl. T1/2,[1],24 h
same,IC50,human CXCR4; [6],2.6 ± 0.7 nM
same,GI50 at 48 h,[2],> 50 µM
same,GI50 at 48 h,[3],> 48 µM
same,"remaining at 24 h, 10 μM",[4],75%
same,human pl. T1/2,[4],24 h
same,Hemolysis at 100 μM,[5],1.6%
CCCCCCCCOc1ccc(C(=O)NCCCC[C@@H]2NC(=O)[C@H](Cc3ccc(O)cc3)NC(=O)[C@@H]3CSSC[C@H](NC(=O)[C@H](C)NC(=O)[C@H](Cc4c[nH]cn4)NC(=O)[C@H](Cc4ccc(O)cc4)NC(=O)[C@@H]4CCCN4C(=O)[C@H]4CCCN4C(=O)[C@H](CCCCN)NC2=O)C(=O)N[C@@H](CCCNC(=N)N)C(=O)N[C@@H](C)C(=O)N2CCC[C@@H]2C(=O)N[C@@H](CCN)C(=O)N[C@@H](CCCNC(=N)N)C(=O)N[C@@H](Cc2ccc(O)cc2)C(=O)N3)cc1 [Ex. 23] (cyclo(YHACRA[dP][Dab]RYCYK(Benzoyl(4-octyloxy))K[dP]P); disulfide 4-11),"remaining at 24 h, 10 μM",[1],74%
same,mouse pl. T1/2,[1],24 h
same,IC50,human CXCR4,8.3 ± 3.2 nM
same,GI50 at 48 h,[2],> 50 µM
same,GI50 at 48 h,[3],> 22 µM
same,"remaining at 24 h, 10 μM",[4],100%
same,human pl. T1/2,[4],24 h
same,Hemolysis at 100 μM,[5],7.8%
